Measurements: ChEMBL document CHEMBL1909589, “5-(2'-Pyridyl)-2-aminothiazoles: alkyl amino sulfonamides and sulfamides as potent NPY(5) antagonists” (Bioorg Med Chem Lett, 2011)

Columns and labels:
[1] = Plasma clearance in Sprague-Dawley rat at 2 mg/kg, po and 1 mg/kg, iv by HPLC method; assay type: ADME, organism-based
[2] = system: Liver microsomes; experiment: Intrinsic clearance in rat liver microsomes; assay type: ADME, Microsome
[3] = Volume of distribution at steady state in Sprague-Dawley rat at 2 mg/kg, po and 1 mg/kg, iv by HPLC method; assay type: ADME, organism-based; conditions: in vivo, read-out: Vdss
[4] = Plasma concentration in Sprague-Dawley rat at 10 mg/kg, po after 4 hrs; assay type: ADME, organism-based; set-up: dose 10 mg/kg, route oral
[5] = Drug uptake in Sprague-Dawley rat brain at 10 mg/kg, po after 4 hrs; assay type: ADME, organism-based; set-up: dose 10 mg/kg, route oral; conditions: read-out: Drug uptake
[6] = Plasma concentration in Sprague-Dawley rat at 3 mg/kg, po after 1 hr; assay type: ADME, organism-based; set-up: dose 3 mg/kg, route oral
[7] = Drug uptake in Sprague-Dawley rat brain at 3 mg/kg, po after 1 hr; assay type: ADME, organism-based; set-up: dose 3 mg/kg, route oral; conditions: read-out: Drug uptake
[8] = Absolute oral bioavailability in Sprague-Dawley rat at 2 mg/kg by HPLC method; assay type: ADME, organism-based; conditions: in vivo
[9] = system: Liver microsomes; experiment: Intrinsic clearance in human liver microsomes; assay type: ADME, Microsome

Row | CL [2] | CL [9] | SMILES | other results
1 | 110 mL/min | 1.8 L/min | CN(C)S(=O)(=O)NCCCCCNc1nc(-c2ccccn2)cs1 | clearance [1]: 140 mL/min/kg; Vd [3]: 47 L/kg; concentration at 4 h [4]: 24 ng/mL; concentration at 4 h [5]: 12 ng/g; concentration at 1 h [6]: 12 ng/mL; concentration at 1 h [7]: 4 ng/g; bioavailability [8]: 26%
2 | 120 mL/min | 2.5 L/min | CN1CCN(S(=O)(=O)NCCCCCNc2nc(-c3ccccn3)cs2)CC1 | 
3 |  | 1.1 L/min | CC(C)S(=O)(=O)NCCOCCNc1nc(-c2ccccn2)cs1 | 
4 |  | 27 L/min | Cc1nc(C)c(S(=O)(=O)NCCCCCNc2nc(-c3ccccn3)cs2)s1 | 
5 | 74 mL/min | 11 L/min | CC1CN(S(=O)(=O)NCCCCCNc2nc(-c3ccccn3)cs2)CC(C)O1 (stereo not given) | 
6 | 72 mL/min | 2.2 L/min | CC(C)S(=O)(=O)NCCCCCNc1nc(-c2ccccn2)cs1 | clearance [1]: 383 mL/min/kg; Vd [3]: 22 L/kg; bioavailability [8]: 49%
7 | 40 mL/min | 2.5 L/min | CS(=O)(=O)NC[C@H]1CC[C@H](Nc2nc3c(s2)CCSc2ccccc2-3)CC1 | 
8 | 150 mL/min | 16 L/min | COCCN(CCOC)S(=O)(=O)NCCCCCNc1nc(-c2ccccn2)cs1 | 
9 | 87 mL/min | 5.4 L/min | CC(C)S(=O)(=O)NCCCCCNc1nc(-c2ccsc2)cs1 | 
10 | 44 mL/min | 2.9 L/min | O=S(=O)(NCCCCCNc1nc(-c2ccccn2)cs1)N1CCOCC1 | 
11 | 290 mL/min | 27 L/min | CCN(CC)S(=O)(=O)NCCCCCNc1nc(-c2ccccn2)cs1 | 
